These results are taken from US9067931B2, “2-heteroaryl carboxamides” (BAYER INTELLECTUAL PROPERTY GMBH, priority 2002, dated 2015).

Structures can show the parent of a compound that is named as a salt.

The target of this experiment is α7 nAChR (Rattus norvegicus (Rat), UniProt Q05941). Description: Inhibition of [3H]-methyllycaconitine binding to rat brain membranes. The settings on record: [3H]-methyllycaconitine displacement, rat brain membranes (hippocampus or whole brain), Ki=IC50/(1+L/KD). The procedure: Determination of the Affinity of Test Substaces for α7 nAChR by Inhibition of [^3H]-Methyllycaconitine Binding to Rat Brain Membranes
The [^3H]-methyllycaconitine binding assay is a modification of the method described by Davies et al. in Neuropharmacol. 1999, 38, 679-690.
Rat brain tissue (hippocampus or whole brain) is homogenized in homogenization buffer (10% w/v, 0.32 M sucrose, 1 mM EDTA, 0.1 mM phenylmethylsulphonyl fluoride (PMSF), 0.01% (w/v) NaN3, pH 7.4, 4° C.) at 600 rpm in a glass homogenizer. The homogenate is centrifuged (1000×g, 4° C., 10 min) and the supernatant is removed. The pellet is resuspended (20% w/v) and the suspension is centrifuged (1000×g, 4° C., 10 min). The two supernatants are combined and centrifuged (15 000×g, 4° C., 30 min). The pellet obtained in this way is referred to as the P2 fraction.
The P2 pellet is suspended in binding buffer (50 mM Tris-HCl, 1 mM MgCl2, 120 mM NaCl, 5 mM KCl, 2 mM CaCl2, pH 7.4), and the suspension is centrifuged (15 000×g, 4° C., 30 min), twice.
The residue is resuspended in binding buffer and incubated in a volume of 250 μl (amount of membrane protein 0.1-0.5 mg) in the presence of 1-5 nM [^3H]-methyllycaconitine 0.1% (w/v) BSA (bovine serum albumin) and various concentrations of the test substance at 21° C. for 2.5 h. […] in the presence of 1 μM α-bungarotoxin or 100 μM nicotine or 10 μM MLA (methyllycaconitine).
The incubation is stopped by adding 4 ml PBS (20 mM Na2HPO4, 5 mM KH2PO4, 150 mM NaCl, pH 7.4, 4° C.) and filtering through type A/E glass fibre filters (Gelman Sciences) which have previously been placed in 0.3% (v/v) polyethyleneimine (PEI) for 3 h. The filters are washed twice with 4 ml of PBS (4° C.), and the bound radioactivity is determined by scintillation measurement. All the assays are carried out in triplicate. The dissociation constant K1 of the test substance was determined from the IC50 of the compounds (concentration of the test substance at which 50% of the ligand bound to the receptor is displaced), the dissociation constant KD and the concentration L of [^3H]-methyllycaconitine using the equation Ki=IC50/(1+L/KD).

Chain of α7 nAChR (Q05941 23-502): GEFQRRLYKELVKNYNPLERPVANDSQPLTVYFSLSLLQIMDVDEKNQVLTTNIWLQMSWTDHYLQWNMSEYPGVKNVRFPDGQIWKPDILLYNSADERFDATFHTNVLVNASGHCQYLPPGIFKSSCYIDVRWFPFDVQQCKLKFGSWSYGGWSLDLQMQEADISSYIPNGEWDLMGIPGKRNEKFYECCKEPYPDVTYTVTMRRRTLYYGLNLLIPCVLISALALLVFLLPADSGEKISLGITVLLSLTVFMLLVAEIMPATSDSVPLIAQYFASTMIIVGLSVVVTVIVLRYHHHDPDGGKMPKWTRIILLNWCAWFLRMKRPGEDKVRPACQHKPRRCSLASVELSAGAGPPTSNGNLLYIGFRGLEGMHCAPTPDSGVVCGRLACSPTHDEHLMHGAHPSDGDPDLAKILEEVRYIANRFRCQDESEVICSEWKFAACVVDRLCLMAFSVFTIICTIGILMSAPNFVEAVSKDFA

`O=C(N[C@H]1CN2CCC1CC2)c1cc2ccc(-c3ccc(CO)cc3)cc2o1` [Example 3, N-[(3R)-1-Azabicyclo[2.2.2]oct-3-yl]-6-[4-(hydroxymethyl)phenyl]-1-benzofuran-2-carboxamide] yielded an inhibition constant (Ki) of 60 nM.

For the compound `O=C(N[C@H]1CN2CCC1CC2)c1cc2ccc(-c3ccc(N4CCOCC4)cc3)cc2o1` [Example 4, N-[(3R)-1-Azabicyclo[2.2.2]oct-3-yl]-6-[4-(4-morpholinyl)phenyl]-1-benzofuran-2-carboxamide], the affinity, expressed as Ki, was 24 nM.

`COc1cccc(-c2cccc3cc(C(=O)N[C@H]4CN5CCC4CC5)sc23)c1` [Example 17, N-[(3R)-1-Azabicyclo[2.2.2]oct-3-yl]-7-(3-methoxyphenyl)-1-benzothiophene-2-carboxamide hydrochloride] showed a Ki of 17 nM.

The compound `O=C(N[C@H]1CN2CCC1CC2)c1cc2cccc(-c3ccc(N4CCOCC4)cc3)c2s1` [Example 19, N-[(3R)-1-Azabicyclo[2.2.2]oct-3-yl]-7-[4-(4-morpholinyl)phenyl]-1-benzothiophene-2-carboxamide hydrochloride] had a Ki of 20 nM.

As for `O=C(N[C@H]1CN2CCC1CC2)c1cc2cccc(-c3ccc(CO)cc3)c2s1` [Example 20, N-[(3R)-1-Azabicyclo[2.2.2]oct-3-yl]-7-[4-(hydroxymethyl)phenyl]-1-benzothiophene-2-carboxamide hydrochloride], the affinity, expressed as Ki, was 1.6 nM.

`NCc1ccccc1-c1cccc2cc(C(=O)N[C@H]3CN4CCC3CC4)sc12` [Example 73, 7-[2-(Aminomethyl)phenyl]-N-[(3R)-1-azabicyclo[2.2.2]oct-3-yl]-1-benzothiophene-2-carboxamide dihydrochloride]: the Ki is < 1 nM.

In the case of `O=C(O)c1cccc(-c2cccc3cc(C(=O)N[C@H]4CN5CCC4CC5)sc23)c1` [Example 75, 3-(2-{[(3R)-1-Azabicyclo[2.2.2]oct-3-ylamino]carbonyl}-1-benzothien-7-yl)-benzoic acid hydrochloride], the Ki is < 0.1 nM.

Compound `O=C(N[C@H]1CN2CCC1CC2)c1cc2cccc(-c3ccc(N4CCOCC4=O)cc3)c2o1` [Example 90, N-[(3R)-1-Azabicyclo[2.2.2]oct-3-yl]-7-[4-(3-oxo-4-morpholinyl)phenyl]-1-benzofuran-2-carboxamide hydrochloride] returned an inhibition constant (Ki) of 14 nM.

For `COc1ccccc1-c1cccc2cc(C(=O)N[C@H]3CN4CCC3CC4)oc12` [Example 102, N-[(3R)-1-Azabicyclo[2.2.2]oct-3-yl]-7-[2-(methoxy)phenyl]-1-benzofuran-2-carboxamide hydrochloride], the Ki (hydrochloride) was found to be 62 nM.

The compound `CCNC(=O)Nc1cccc(-c2cccc3cc(C(=O)N[C@H]4CN5CCC4CC5)oc23)c1` [Example 108, N-[(3R)-1-Azabicyclo[2.2.2]oct-3-yl]-7-(3-{[(ethylamino)carbonyl]amino}phenyl)-1-benzofuran-2-carboxamide hydrochloride] registered a Ki of 17 nM.

For the compound `O=C(N[C@H]1CN2CCC1CC2)c1cc2cccc(-c3cccc(NC(=O)C4CC4)c3)c2o1` [Example 116, N-[(3R)-1-Azabicyclo[2.2.2]oct-3-yl]-7-{3-[(cyclopropylcarbonyl)amino]phenyl}-1-benzofuran-2-carboxamide hydrochloride], affinity was put at a Ki of 17 nM. This counts as double-digit nanomolar.

Turning to `COc1ccccc1-c1cccc2cc(C(=O)N[C@H]3CN4CCC3CC4)oc12` [Example 130, N-[(3R)-1-Azabicyclo[2.2.2]oct-3-yl]-7-[2-(methoxy)phenyl]-1-benzofuran-2-carboxamide], the Ki was 26 nM.

`O=C(O)c1cccc(-c2cccc3cc(C(=O)N[C@H]4CN5CCC4CC5)oc23)c1` [Example 149, 3-(2-{[(3R)-1-Azabicyclo[2.2.2]oct-3-ylamino]carbonyl}-1-benzofuran-7-yl)-benzoic acid hydrochloride] yielded a Ki of 97 nM. This Ki lies about 3.7-fold higher than the previous one.

`O=C(N[C@H]1CN2CCC1CC2)c1cc2cccc(-c3ccccc3CO)c2o1` [Example 150, N-[(3R)-1-Azabicyclo[2.2.2]oct-3-yl]-7-[2-(hydroxymethyl)phenyl]-1-benzofuran-2-carboxamide hydrochloride] registered a Ki of 35 nM.

For the compound `COc1ccc(OC)c(-c2cccc3cc(C(=O)N[C@H]4CN5CCC4CC5)oc23)c1` [Example 151, N-[(3R)-1-Azabicyclo[2.2.2]oct-3-yl]-7-(2,5-dimethoxyphenyl)-1-benzofuran-2-carboxamide hydrochloride], the Ki came to 88 nM.

Regarding `CNC(=O)NCc1ccccc1-c1cccc2cc(C(=O)N[C@H]3CN4CCC3CC4)oc12` [Example 175, N-[(3R)-1-Azabicyclo[2.2.2]oct-3-yl]-7-[2-({[(methylamino)carbonyl]amino}-methyl)phenyl]-1-benzofuran-2-carboxamide hydrochloride], the Ki is 8.3 nM.

Turning to `O=C(N[C@H]1CN2CCC1CC2)c1cc2cccc(-c3ccccc3O)c2o1` [Example 186, N-[(3R)-1-Azabicyclo[2.2.2]oct-3-yl]-7-(2-hydroxyphenyl)-1-benzofuran-2-carboxamide], the affinity, expressed as Ki, was 120 nM.

Broadly, the Ki is a dissociation constant, usually derived from enzyme kinetics or from competition with a known ligand. The low end stands for a stronger hold on the target, the high end for a looser hold on the target.
